Reference: patent publication US20060205697A1, “Novel betulin derivatives, preparation thereof and use thereof” (priority 2004, published 2006)
pEC50: −log10 of the molar value. Where two headings read alike, the source gives them in different places.

Tests used:
HIV-1 IIIIB isolate = experiment: HIV-1 inhibition: suppression of virus-induced cell killing in MT-2 cells, XTT method; format: cell-based; conditions: Human immunodeficiency virus 1, IIIB, MT2, 120 h, read-out: anti-HIV activity (EC50)
Experimental: The biological evaluation of HIV-1 inhibition can be carried out as follows according to established protocols (Montefiori, D. C., et al., Clin. Microbiol. 26:231-235 (1988); Roehm, N., et al. J. Immunol. Methods 142:257-265 (1991)).
(§1) The human T-cell line, MT-2, was maintained in continuous culture with complete medium (RPMI 1640 with 10% fetal calf serum supplemented with L-glutamine at 5% CO2 and 37° C.). Test samples were first dissolved in dimethyl sulfoxide at a concentration of 10 mg/mL to generate master stocks with dilutions made into tissue culture media to generate working stocks. The final drug concentrations used for screening were 25. 2.5, 0.25, and 0.025 μg/mL. For agents found to be active, additional dilutions were prepared for subsequent testing so that an accurate EC50 value (defined below) could be determined. Test samples were prepared in duplicate (45 μL/well) and to each sample well was added […] of media containing MT-2 cells at 3×10^5 cells/mL and 45 μL of virus inoculum (HIV-1 IIIIB isolate) at a concentration necessary to result in 50% killing of the cell targets at 5 days post-infection (PI). Control wells containing virus and cells only (no drug) and cells only (no virus or drug) were also prepared. A second set of samples were prepared identical to the first and were added to cells under identical conditions without virus (mock infection) for toxicity determinations (IC50 defined below). In addition, AZT was also assayed during each experiment as a positive drug control. On day 5 PI, virus-induced cell killing was determined by measuring cell viability using the XTT method (Roehm, N., et al., supra). Compound toxicity was determined by XTT using the mock-infected samples. If a test sample had suppressive capability and was not toxic, its effects were reported in the following terms: IC50, the concentration of test sample which is toxic to 50% of the mock-infected MT-2 cells; EC50, the concentration of the test sample that is able to suppress HIV replication by 50%; and the Therapeutic index (TI) the ratio of the IC50 to EC50. The effective (EC50) and inhibitory (IC50) concentrations for anti-HIV activity and cytotoxicity, respectively, were determined (Roehm, N., et al., supra).

[1] = Compound toxicity in mock-infected MT-2 cells, XTT method; format: cell-based; conditions: human
Experimental: as §1

[2] = system: HIV-1 replication in H9 lymphocyte cells; conditions: cited from earlier work

Compound	pEC50 (HIV-1 IIIIB isolate)	IC50 at 5 days [1] [nM]	T.I. ([2]; H9 lymphocyte cells)	pEC50 ([2]; unit inferred, Fujioka et al. 1994, read-out: EC50, anti-HIV activity)	pEC50 ([2]; H9 lymphocyte cells, read-out: EC50, inhibitory activity against HIV-1 replication)
C=C(C)[C@@H]1CC[C@]2(C(=O)OC3CCOC3)CC[C@]3(C)[C@H](CC[C@@H]4[C@@]5(C)CC[C@H](OC(=O)CC(C)(C)CC(=O)O)C(C)(C)[C@@H]5CC[C@]43C)[C@@H]12 (mixture of isomers) [Compound 231, 3-O-(31,3′-Dimethylglutaryl)betulinic acid 3-(R/S)-3-(tetrahydrofuranyl) ester]	6.52 to 9.00	5000 to 100000	–	–	–
C=C(C)[C@@H]1CC[C@]2(CN)CC[C@]3(C)[C@H](CC[C@@H]4[C@@]5(C)CC[C@H](OC(=O)CC(C)(C)CC(=O)O)C(C)(C)[C@@H]5CC[C@]43C)[C@@H]12 [Compound 49, 3-O-(3′,3′-dimethylglutaryl)lup-20(29)-en-28-ylamine]	6.52 to 9.00	5000 to 100000	–	–	–
C=C(C)[C@@H]1CC[C@]2(C(=O)OCCC#N)CC[C@]3(C)[C@H](CCC4[C@@]5(C)CC[C@H](OC(=O)CC(C)(C)CC(=O)O)C(C)(C)C5CC[C@]43C)C12 (some centres unmarked) [Compound 206, 3-O-(3′,3′-Dimethylglutaryl)betulinic acid 2-cyanoethyl ester]	6.52 to 9.00	5000 to 100000	–	–	–
C=C(C)[C@@H]1CC[C@]2(C(=O)OCCN(C)C)CC[C@]3(C)[C@H](CCC4[C@@]5(C)CC[C@H](OC(=O)CC(C)(C)CC(=O)O)C(C)(C)C5CC[C@]43C)C12 (some centres unmarked) [Compound 218, 3-O-(3′,3′-Dimethylglutaryl)betulinic acid 2-N,N-dimethylaminoethyl ester]	6.52 to 9.00	5000 to 100000	–	–	–
C=C(C)[C@@H]1CC[C@]2(C(=O)OCCOC)CC[C@]3(C)[C@H](CC[C@@H]4[C@@]5(C)CC[C@H](OC(=O)CC(C)(C)CC(=O)O)C(C)(C)[C@@H]5CC[C@]43C)[C@@H]12 [Compound 223, 3-O-(3′,3′-Dimethylglutaryl)betulinic acid 2-methoxyethyl ester]	6.52 to 9.00	5000 to 100000	–	–	–
C=C(C)[C@@H]1CC[C@]2(C(=O)OC3CCN(C(=O)OC(C)(C)C)C3)CC[C@]3(C)[C@H](CC[C@@H]4[C@@]5(C)CC[C@H](OC(=O)CC(C)(C)CC(=O)O)C(C)(C)[C@@H]5CC[C@]43C)[C@@H]12 (stereo partly drawn) [Compound 227, 3-O-(3′,3′-Dimethylglutaryl)betulinic acid (R)-3-[1-(tert-butoxycarbonyl)-pyrrolidinyl] ester]	6.52 to 9.00	5000 to 100000	–	–	–
C=C(C)[C@@H]1CC[C@]2(C(=O)OCC)CC[C@]3(C)[C@H](CC[C@@H]4[C@@]5(C)CC[C@H](OC(=O)CC(C)(C)CC(=O)O)C(C)(C)[C@@H]5CC[C@]43C)[C@@H]12 [Compound 235, 3-O-(3′,3′-Dimethylglutaryl)betulinic acid ethyl ester]	6.52 to 9.00	5000 to 100000	–	–	–
C=C(C)[C@@H]1CC[C@]2(CNC(=O)OC(C)(C)C)CC[C@]3(C)[C@H](CC[C@@H]4[C@@]5(C)CC[C@H](OC(=O)CC(C)(C)CC(=O)O)C(C)(C)[C@@H]5CC[C@]43C)[C@@H]12 [Compound 1065, tert-Butoxycarboxamide N-[3-O-(3′,3′-dimethylglutaryl)lup-20(29)-en-28-yl]]	6.52 to 9.00	5000 to 100000	–	–	–
CC(C)[C@@H]1CC[C@]2(C(=O)O)CC[C@]3(C)C(CCC4[C@@]5(C)CC[C@H](O)C(C)(C)C5CC[C@]43C)C12 (some centres unmarked) [dihydrobetulinic acid]	–	–	14	6.05	–
CC(=O)[C@@H]1CC[C@]2(C(=O)O)CC[C@]3(C)[C@H](CC[C@@H]4[C@@]5(C)CC[C@H](O)C(C)(C)[C@@H]5CC[C@]43C)[C@@H]12 [platanic acid]	–	–	14	–	5.19
